Tests used:
Hct116 = assay: XTT assay, anti-proliferative activity, Hct116; assay type: cell-based; conditions: Homo sapiens, HCT-116; 45 h incubation
Description: (§1) The principle of this test is based on the intracellular reduction of the tetrazolium dye XTT (sodium 3′-[1-(phenylaminocarbonyl)-3,4-tetrazolium]bis(4-methoxy-6-nitro)benzenesulphonic acid, Sigma) to a formazan dye by mitochondrial dehydrogenases. The dye is formed only by metabolically active cells. Its photometrically measurable intensity is a quantitative indicator for the presence of living cells. The reduction in the dye formation as a result of incubation of the cells with substances serves as a parameter for the anti-proliferative activity.
(§2) The tumour cell lines (ATCC) were seeded in 96-well microtitre plates in a defined cell count (5000 cells/well for Hct116; 10000 cells/well for MDA MB468), and incubated overnight at 37° C., 5% CO2 and 95% air humidity. The test substances were made up as stock solutions (10 mM) in DMSO. […] The cell plates were then incubated for 45 h at 37° C., 5% CO2 and 95% air humidity.
(§3) For the detection reaction, the XTT substrate was mixed with PMS (N-methyldibenzopyrazine methylsulphate, Sigma) and added to the cells, to result in a final concentration of 325 μg of XTT/ml and 2.5 μg PMS/ml. The mixture was then incubated for 3 h at 37° C., 95% air humidity. Subsequently the formazan salt formed by cellular dehydrogenases was quantified at an absorption of 490 nm.
(§4) The evaluation of the % inhibition values was done by means of the following formula from the values for the optical densities measured in each case at 490 nm:
(§5) The controls were determined 8 fold, the substance samples 2 fold. 0% control contained no cells and the 100% control contained no test substance. The EC50 values were determined with GraphPadPrism.

MDA-MB468 = assay: XTT assay, anti-proliferative activity, MDA-MB468; assay type: cell-based; conditions: Homo sapiens, MDA-MB-468; 45 h incubation
Description: as §1, §2, §3, §4, §5

p38alpha = p38alpha (Homo sapiens, UniProt Q16539); assay: Cell-free kinase assay (ALPHA technology) p38alpha; assay type: biochemical; conditions: 10 μM ATP
Chain of p38alpha (Q16539 whole entry, the tested form may be a part): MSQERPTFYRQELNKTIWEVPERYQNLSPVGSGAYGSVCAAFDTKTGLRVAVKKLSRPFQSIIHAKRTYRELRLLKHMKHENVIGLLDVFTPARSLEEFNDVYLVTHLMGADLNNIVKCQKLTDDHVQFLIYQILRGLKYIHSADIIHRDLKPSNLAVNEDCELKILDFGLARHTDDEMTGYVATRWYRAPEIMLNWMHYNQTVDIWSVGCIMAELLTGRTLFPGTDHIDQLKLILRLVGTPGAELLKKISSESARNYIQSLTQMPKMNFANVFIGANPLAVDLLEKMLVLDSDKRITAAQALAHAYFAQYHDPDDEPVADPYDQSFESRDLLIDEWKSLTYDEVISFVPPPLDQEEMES
Description: (§6) The inhibitory effect of the compounds of the invention was tested on various human serine/threonine kinases, tyrosine kinases and lipid kinases in enzymatic assays. Recombinant human kinases, for example PI3Kalpha, -beta, -gamma, -delta, Erk2, p38alpha, p38gamma, Jnk1, Jnk2 and others were used, in some cases as full-length kinases, in some cases as truncated fragments—but at least consisting of the functional kinase domains. The commercial kinase proteins (Proqinase, Upstate) were used as recombinant fusion proteins with GST (glutathione S-transferase) tag or His tag. Depending on the substrate type, the different kinase reactions were quantified by suitable ALPHA™ beads (PerkinElmer).
(§7) The kinase assays for PI3K and Erk are described in detail and selected test results are cited below. […] Subsequently, the kinase reaction was stopped by adding the ALPHA bead mix (10 μg/ml, #6760603/PerkinElmer), preincubated with 1 nM GST:Grp1 fusion protein (Upstate) and […] (#C-39B6/Echelon) in 50 mM Hepes, 50 mM NaCl, 50 mM EDTA and 0.1% BSA, and left to stand overnight. • b) Erk2-ALPHA: The test substance, 0.625 ng of Erk2 (#14-173, Upstate), 10 μM ATP and 15 nM biotinylated MBP (myelin basic protein) substrate were incubated on a 384-well Optiplate (Perkin Elmer) in a volume of 15 μl for 1 h in 25 mM Tris, 10 mM MgCl2, 0.1% Tween-20, 100 μM NaVO4, 2 mM DTT at pH 7.5. The kinase reaction was stopped by adding 10 μl of the ALPHA bead mix (10 μg/ml, #6760617/PerkinElmer), pre-incubated with anti-phospho MBP antibody (320 pM, #05-429/Upstate), in 25 mM Tris, 200 mM NaCl, 100 mM EDTA and 0.3% BSA, and left to stand overnight.
(§8) The luminiscence was detected the next morning in a Fusion™ alpha instrument (Perkin Elmer).
(§9) The calculation of % inhibition values per substance concentration was done by means of the following formula from the raw data determined in the Fusion™ alpha:
(§10) The controls were determined 8 fold and the substance samples 2 fold. 0% control contained neither any ATP nor any substrate. The 100% control contained no test substance. The IC50 values were determined with GraphPadPrism.

Jnk1 + Jnk2 = tested on: T1, Jnk1 + Jnk2; assay: Cell-free kinase assay (ALPHA technology) Jnk1 + Jnk2; assay type: biochemical, human; conditions: 10 μM ATP
T1 construct: fused on or other part: GST tag or His tag (commercial recombinant fusion proteins from Proqinase or Upstate)
Description: as §6, §7, §8, §9, §10

Erk2 = molecular target: T2, Erk2 (Mus musculus, UniProt P63085); assay: Cell-free kinase assay Erk2-ALPHA; assay type: biochemical, human; conditions: 10 μM ATP
T2 construct: purchased Upstate #14-173
T2 sequence (P63085 whole entry): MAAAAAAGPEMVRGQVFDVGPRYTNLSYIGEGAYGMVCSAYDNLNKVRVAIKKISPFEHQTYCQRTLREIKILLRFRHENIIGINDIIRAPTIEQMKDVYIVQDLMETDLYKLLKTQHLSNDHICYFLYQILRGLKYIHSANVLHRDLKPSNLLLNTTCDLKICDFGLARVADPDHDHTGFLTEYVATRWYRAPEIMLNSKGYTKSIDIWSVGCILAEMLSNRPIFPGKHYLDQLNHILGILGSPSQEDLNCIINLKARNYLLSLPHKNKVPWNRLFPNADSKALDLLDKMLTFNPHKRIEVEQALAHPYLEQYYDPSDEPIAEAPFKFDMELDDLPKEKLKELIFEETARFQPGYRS
Description: as §6, §7, §8, §9, §10

| SMILES | EC50 (Hct116) [µM] | melting point [°C] | EC50 (MDA-MB468) [µM] | IC50 (p38alpha) [µM] | IC50 (Jnk1 + Jnk2) [µM] | IC50 (Erk2) [µM] |
| --- | --- | --- | --- | --- | --- | --- |
| CCNC(=S)Nc1ccc2ncc(Nc3ccccc3)nc2n1 [Compound 148, 1-Ethyl-3-(3-phenylamino-pyrido[2,3-b]pyrazin-6-yl)-thiourea] | < 10 | 285 | < 5 |  |  |  |
| COc1cc(-c2ccc3ncc(NC(=O)NC4CCN(C(=O)C(F)(F)F)CC4)nc3n2)ccc1O [Compound 30, 1-[6-(4-Hydroxy-3-methoxy-phenyl)-pyrido[2,3-b]pyrazin-3-yl]-3-[1-(2,2,2-trifluoro-acetyl)-piperidin-4-yl]-urea] |  | 236 to 239 |  | < 10 | < 31.6 | < 10 |
| CCNC(=S)Nc1ccc2ncc(Nc3ccc(C)cc3)nc2n1 [Compound 126, 1-Ethyl-3-(3-p-tolylamino-pyrido[2,3-b]pyrazin-6-yl)-thiourea] | < 5 | 278 | < 5 |  |  |  |
| CCNC(=O)Nc1ccc2ncc(Nc3cccc(OC)c3)nc2n1 [Compound 89, 1-Ethyl-3-[3-(3-methoxy-phenylamino)-pyrido[2,3-b]pyrazin-6-yl]-urea] | < 5 | 216 to 219 | < 5 |  |  |  |
| CCNC(=S)Nc1ccc2ncc(Nc3cc(OC)c(OC)c(OC)c3)nc2n1 [Compound 160, 1-Ethyl-3-[3-(3,4,5-trimethoxy-phenylamino)-pyrido[2,3-b]pyrazin-6-yl]-thiourea] | < 1 | 268 | < 1 | < 50 | > 100 | < 31.6 |
| COc1cc(-c2ccc3ncc(NC(=O)Nc4cccs4)nc3n2)ccc1O [Compound 614, 1-[6-(4-Hydroxy-3-methoxy-phenyl)-pyrido[2,3-b]pyrazin-3-yl]-3-thiophen-2-yl-urea] | < 5 | 216 to 219 | < 5 | < 10 | < 31.6 | < 31.6 |
| CCNC(=O)Nc1cnc2ccc(-c3cc(C)c(O)c(C)c3)nc2n1 [Compound 181, 1-Ethyl-3-[6-(4-hydroxy-3,5-dimethyl-phenyl)-pyrido[2,3-b]pyrazin-3-yl]-urea] | < 10 | > 240 | < 10 | < 50 | > 100 | > 100 |
| CCNC(=S)Nc1ccc2ncc(Nc3ccc(OC)c(O)c3)nc2n1 [Compound 147, 1-Ethyl-3-[3-(3-hydroxy-4-methoxy-phenylamino)-pyrido[2,3-b]pyrazin-6-yl]-thiourea] | < 5 | 272 | < 5 | > 100 | > 31.6 | > 100 |
| O=C(Nc1cnc2ccc(-c3cc(Cl)c(O)c(Cl)c3)nc2n1)NC1CCCC1 [Compound 563, 1-Cyclopentyl-3-[6-(3,5-dichloro-4-hydroxy-phenyl)-pyrido[2,3-b]pyrazin-3-yl]-urea] | < 1 | 262 to 264 | < 1 |  |  | > 100 |
| CCNC(=O)Nc1ccc2ncc(-c3cccs3)nc2n1 [Compound 152, 1-Ethyl-3-(3-thiophen-2-yl-pyrido[2,3-b]pyrazin-6-yl)-urea] | < 10 | 227 to 228 | < 10 |  |  |  |
| COc1cc(-c2ccc3ncc(NC(=O)Nc4ccncc4)nc3n2)ccc1O [Compound 176, 1-[6-(4-Hydroxy-3-methoxy-phenyl)-pyrido[2,3-b]pyrazin-3-yl]-3-pyridin-4-yl-urea] | < 1 | 234 to 237 | < 1 | < 50 | < 50 | > 31.6 |
| CCNC(=S)Nc1ccc2ncc(-c3cc(OC)c(OC)c(OC)c3)nc2n1 [Compound 134, 1-Ethyl-3-[3-(3,4,5-trimethoxy-phenyl)-pyrido[2,3-b]pyrazin-6-yl]-thiourea] | < 5 | 230 | < 5 |  |  |  |
| CCNC(=S)Nc1ccc2ncc(-c3ccc(N)c(OC)c3)nc2n1 [Compound 140, 1-[3-(4-Amino-3-methoxy-phenyl)-pyrido[2,3-b]pyrazin-6-yl]-3-ethyl-thiourea] | < 5 |  | < 5 |  |  |  |
| COc1cc(-c2ccc3ncc(NC(=O)NC4CCCC4)nc3n2)ccc1O [Compound 20, 1-Cyclopentyl-3-[6-(4-hydroxy-3-methoxy-phenyl)-pyrido[2,3-b]pyrazin-3-yl]-urea] |  | 222 to 225 |  | > 100 | > 100 | > 100 |
| CCNC(=S)Nc1ccc2ncc(-c3cnn(C)c3)nc2n1 [Compound 113, 1-Ethyl-3-[3-(1-methyl-1H-pyrazol-4-yl)-pyrido[2,3-b]pyrazin-6-yl]-thiourea] | < 5 | 242 | < 5 |  |  |  |
| CCNC(=O)Nc1cnc2ccc(-c3ccc(O)c(Cl)c3)nc2n1 [Compound 637, 1-[6-(3-Chloro-4-hydroxy-phenyl)-pyrido[2,3-b]pyrazin-3-yl]-3-ethyl-urea] | < 10 | > 270 | < 10 | > 100 | > 100 | > 100 |
| CCNC(=S)Nc1ccc2ncc(Nc3ccc(O)c(OC)c3)nc2n1 [Compound 150, 1-Ethyl-3-[3-(4-hydroxy-3-methoxy-phenylamino)-pyrido[2,3-b]pyrazin-6-yl]-thiourea] | < 5 | 269 | < 5 |  |  |  |
| CNC(=O)Nc1cnc2ccc(-c3ccc(OC)c(OC)c3)nc2n1 [Compound 566, 1-[6-(3,4-Dimethoxy-phenyl)-pyrido[2,3-b]pyrazin-3-yl]-3-methyl-urea] | < 5 | 253 to 255 | < 5 | > 31.6 | > 100 | > 100 |
| COc1cc(-c2ccc3ncc(NC(=O)NCCCl)nc3n2)ccc1O [Compound 173, 1-(2-Chloro-ethyl)-3-[6-(4-hydroxy-3-methoxy-phenyl)-pyrido[2,3-b]pyrazin-3-yl]-urea] | < 1 | 215 to 218 | < 1 | < 50 | < 31.6 | < 50 |
| CC(C)(C)NC(=O)Nc1cnc2ccc(-c3cc(Cl)c(O)c(Cl)c3)nc2n1 [Compound 553, 1-tert-Butyl-3-[6-(3,5-dichloro-4-hydroxy-phenyl)-pyrido[2,3-b]pyrazin-3-yl]-urea] | < 5 | 251 to 253 | < 5 | > 100 | < 100 | > 100 |
| COc1cc(Nc2cnc3ccc(NC(=S)NC4CCCC4)nc3n2)cc(OC)c1OC [Compound 509, 1-Cyclopentyl-3-[3-(3,4,5-trimethoxy-phenylamino)-pyrido[2,3-b]pyrazin-6-yl]-thiourea] | < 5 | 246 | < 5 | > 100 | > 100 | > 100 |
| CCNC(=S)Nc1ccc2ncc(-c3cc(Cl)c(O)c(Cl)c3)nc2n1 [Compound 138, 1-[3-(3,5-Dichloro-4-hydroxy-phenyl)-pyrido[2,3-b]pyrazin-6-yl]-3-ethyl-thiourea] | < 10 |  | < 10 |  |  |  |
